Series [1] is described as follows: Stability of DHA powder at room temperature. In kind it is physicochemical. The settings on record: powder form, no antioxidants added.
A short description of series [2]: Solubility of the isolated DHA powder (physical characterisation). In kind it is physicochemical. The settings on record: solvent chloroform; isolated DHA free fatty acid powder. On the procedure: Take 1 liter of fish oil. Maintain temperature to 40-45° C. To it add 1-2% methanolic/ethanolic/propanolic/butanolic sodium or potassium hydroxide 1 liter. Stir for ½ an hour. It separates two layers, discard upper layer which contains lower fatty acids and other impurities. Then, to the lower layer add 750 ml of acetone or ethyl or methyl ketone and stir for one hr and keep aside for ½ hour to precipitate DHA. Filter it and wash 2-3 times with equal quantity of acetone. Evaporate and recover the solvent with temperature not exceeding 40 degree C. This leads to drying of the precipitated DHA at room temperature to form the crystalline mass. The same is passed through the sieve to obtain a dry, directly compressible, free flowing powder of polyunsaturated free fatty acid DHA thereof. The DHA is creamish or off-white crystalline solid powder having melting point 60-62 degree C.
Cool fish oil 12 degree C. to solidify all fatty acids in waxy form and separate it from fish oil. Maintain temperature to 40-45° C. In 1 kg waxy fatty acid, add 1 litre ethanolic or methanolic or propanolic or butanolic sodium or potassium hydroxide 1-2% and stir it for ½ an hour. The solution separates the oily layer which contains lower fatty acids and other impurities then, add ethyl acetate:acetone 90:10 to 10:90 to above solvent. It precipitates DHA in solid form. […]

One compound from patent US20140018558A1, “DOCOSAHEXAENOIC ACID (DHA) AS POLYUNSATURATED FREE FATTY ACID IN ITS DIRECTLY COMPRESSIBLE POWDER FORM AND METHOD OF ISOLATION THEREOF” (priority 2011, published 2014) can be followed below.

Consider `CC/C=C\C/C=C\C/C=C\C/C=C\C/C=C\C/C=C\CCC(=O)O` [DHA, Docosahexaenoic acid], for which the Stability result in series [1] was “stable at room temperature”. Besides, in series [2], the Solubility result is “freely soluble in chloroform”.
